ChEMBL document CHEMBL1201862, “PubChem BioAssay data set” (2004)
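A five-concentration, 48-hour dose response in 96-well plates underlies each endpoint, interpolated linearly between surrounding concentrations. Abbreviation: GI50, concentration required for 50% inhibition of growth.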 The source made the active and inactive calls. No stated cut-off is given here; in the data, active = GI50 up to about 1.1 µM and inactive = higher.

Key:
Assay in all cases: growth of human tumour cells (NCI), 48 h
CCRF-CEM = system: CCRF-CEM
OVCAR-5 = system: OVCAR-5
ACHN = system: ACHN
RXF 631 = system: RXF 631
NCI-H460 = system: NCI-H460
SW-620 = system: SW-620
HOP-92 = system: HOP-92
SK-OV-3 = system: SK-OV-3
A498 = system: A498
SR = system: SR
KM12 = system: KM12
SK-MEL-28 = system: SK-MEL-28
U-251 = system: U-251
UO-31 = system: UO-31
NCI-H23 = system: NCI-H23
SK-MEL-5 = system: SK-MEL-5
MOLT-4 = system: MOLT-4
IGROV-1 = system: IGROV-1
OVCAR-8 = system: OVCAR-8
A549 = system: A549
SN12C = system: SN12C
HOP-18 = system: HOP-18
OVCAR-4 = system: OVCAR-4
SNB-19 = system: SNB-19
SK-MEL-2 = system: SK-MEL-2
KM-20L2 = system: KM-20L2
COLO 205 = system: COLO 205
NCI-H226 = system: NCI-H226
UACC-257 = system: UACC-257
DMS-114 = system: DMS-114
UACC-62 = system: UACC-62
SF-295 = system: SF-295
M14 = system: M14
RPMI-8226 = system: RPMI-8226
NCI-H522 = system: NCI-H522
CAKI-1 = system: CAKI-1
SF-268 = system: SF-268
OVCAR-3 = system: OVCAR-3
HCT-15 = system: HCT-15
SF-539 = system: SF-539
HOP-62 = system: HOP-62
DLD-1 = system: DLD-1
K562 = system: K562
LOX IMVI = system: LOX IMVI
786-0 = system: 786-0
TK-10 = system: TK-10
HL-60 = system: HL-60
Malme-3M = system: Malme-3M
M19-MEL = system: M19-MEL
DMS-273 = system: DMS-273
EKVX = system: EKVX
HCC 2998 = system: HCC 2998
HCT-116 = system: HCT-116
XF498 = system: XF498
SNB-75 = system: SNB-75
HT-29 = system: HT-29
LXFL 529 = system: LXFL 529

Structure (SMILES): O=C(Nc1cccs1)c1c(O)[nH]c(=S)[nH]c1=O
- GI50 (CCRF-CEM): > 100 µM (inactive)
- GI50 (OVCAR-5): > 100 µM (inactive)
- GI50 (ACHN): > 100 µM (inactive)
- GI50 (RXF 631): > 100 µM (inactive)
- GI50 (NCI-H460): > 100 µM (inactive)
- GI50 (SW-620): > 100 µM (inactive)
- GI50 (HOP-92): > 100 µM (inactive)
- GI50 (SK-OV-3): > 100 µM (inactive)
- GI50 (A498): > 100 µM (inactive)
- GI50 (SR): > 100 µM (inactive)
- GI50 (KM12): > 100 µM (inactive)
- GI50 (SK-MEL-28): > 100 µM (inactive)
- GI50 (U-251): > 100 µM (inactive)
- GI50 (UO-31): > 100 µM (inactive)
- GI50 (NCI-H23): > 100 µM (inactive)
- GI50 (SK-MEL-5): > 100 µM (inactive)
- GI50 (MOLT-4): > 100 µM (inactive)
- GI50 (IGROV-1): > 100 µM (inactive)
- GI50 (OVCAR-8): > 100 µM (inactive)
- GI50 (A549): > 100 µM (inactive)
- GI50 (SN12C): > 100 µM (inactive)
- GI50 (HOP-18): > 100 µM (inactive)
- GI50 (OVCAR-4): > 100 µM (inactive)
- GI50 (SNB-19): > 100 µM (inactive)
- GI50 (SK-MEL-2): > 100 µM (inactive)
- GI50 (KM-20L2): > 100 µM (inactive)
- GI50 (COLO 205): > 100 µM (inactive)
- GI50 (NCI-H226): > 100 µM (inactive)
- GI50 (UACC-257): > 100 µM (inactive)
- GI50 (DMS-114): > 100 µM (inactive)
- GI50 (UACC-62): > 100 µM (inactive)
- GI50 (SF-295): > 100 µM (inactive)
- GI50 (M14): > 100 µM (inactive)
- GI50 (RPMI-8226): > 100 µM (inactive)
- GI50 (NCI-H522): > 100 µM (inactive)
- GI50 (CAKI-1): > 100 µM (inactive)
- GI50 (SF-268): > 100 µM (inactive)
- GI50 (OVCAR-3): > 100 µM (inactive)
- GI50 (HCT-15): > 100 µM
- GI50 (SF-539): > 100 µM (inactive)
- GI50 (HOP-62): > 100 µM (inactive)
- GI50 (DLD-1): > 100 µM (inactive)
- GI50 (K562): > 100 µM (inactive)
- GI50 (LOX IMVI): > 100 µM (inactive)
- GI50 (786-0): > 100 µM (inactive)
- GI50 (TK-10): > 100 µM (inactive)

Structure (SMILES): Cc1ccccc1/N=N/C(C(=O)c1ccccc1)C(=O)c1ccccc1
- GI50 (HL-60): 11.9 µM (inactive)
- GI50 (CCRF-CEM): 9.46 µM (inactive)
- GI50 (OVCAR-5): 31.1 µM (inactive)
- GI50 (ACHN): 27.4 µM (inactive)
- GI50 (RXF 631): 34.9 µM (inactive)
- GI50 (Malme-3M): 31.7 µM (inactive)
- GI50 (SW-620): 25.9 µM (inactive)
- GI50 (HOP-92): 17.9 µM (inactive)
- GI50 (SK-OV-3): 41.6 µM (inactive)
- GI50 (A498): 39 µM (inactive)
- GI50 (KM12): 29.7 µM (inactive)
- GI50 (M19-MEL): 17.5 µM (inactive)
- GI50 (SK-MEL-28): 24 µM (inactive)
- GI50 (U-251): 16 µM (inactive)
- GI50 (UO-31): 17.2 µM (inactive)
- GI50 (NCI-H23): 18.3 µM (inactive)
- GI50 (SK-MEL-5): 16.6 µM (inactive)
- GI50 (DMS-273): 18.3 µM (inactive)
- GI50 (MOLT-4): 13.4 µM (inactive)
- GI50 (IGROV-1): 44.2 µM (inactive)
- GI50 (OVCAR-8): 31.8 µM (inactive)
- GI50 (EKVX): 25.2 µM (inactive)
- GI50 (A549): 24.9 µM (inactive)
- GI50 (SN12C): 20 µM (inactive)
- GI50 (OVCAR-4): 18.7 µM (inactive)
- GI50 (SNB-19): 18.9 µM (inactive)
- GI50 (HCC 2998): 40.8 µM (inactive)
- GI50 (HCT-116): 16.1 µM (inactive)
- GI50 (SK-MEL-2): 19.7 µM (inactive)
- GI50 (KM-20L2): 27.7 µM (inactive)
- GI50 (COLO 205): 33.7 µM (inactive)
- GI50 (NCI-H226): 11.7 µM (inactive)
- GI50 (UACC-257): 26.7 µM (inactive)
- GI50 (DMS-114): 19.4 µM (inactive)
- GI50 (UACC-62): 20.9 µM (inactive)
- GI50 (SF-295): 23.8 µM (inactive)
- GI50 (XF498): 19.5 µM (inactive)
- GI50 (M14): 18.1 µM (inactive)
- GI50 (RPMI-8226): 16.1 µM (inactive)
- GI50 (NCI-H522): 15.7 µM (inactive)
- GI50 (CAKI-1): 34.1 µM (inactive)
- GI50 (SF-268): 23.3 µM (inactive)
- GI50 (OVCAR-3): 24.9 µM (inactive)
- GI50 (SNB-75): 19.1 µM (inactive)
- GI50 (HT-29): 28 µM (inactive)
- GI50 (LXFL 529): 13.1 µM (inactive)
- GI50 (HCT-15): 17.1 µM
- GI50 (SF-539): 23.8 µM (inactive)
- GI50 (HOP-62): 23.8 µM (inactive)
- GI50 (DLD-1): 30.8 µM (inactive)
- GI50 (K562): 22.6 µM (inactive)
- GI50 (786-0): 25.4 µM (inactive)
- GI50 (TK-10): 44.8 µM (inactive)
